The source of these data is patent US9512128B2 (BAYER CROPSCIENCE AG, priority 2012, dated 2016).

Data set [1] has as its system greenhouse red spider mite (Tetranychus urticae). The data set can be described thus: Tetranychus urticae spray test, OP-resistant (TETRUR). The format is in vivo. The note with it: after 6 days, bean leaf discs. On the procedure:
4. Tetranychus urticae Spray Test, OP-Resistant (TETRUR)
• Solvents: 78.0 parts by weight of acetone • 1.5 part by weight of dimethylformamide • Emulsifier: 0.5 part by weight of alkylaryl polyglycol ether
To produce a suitable preparation of active compound, 1 part by weight of active compound is mixed with the stated amounts of solvents and emulsifier, and the concentrate is diluted with emulsifier-containing water to the desired concentration.
Discs of bean leaves (Phaseolus vulgaris) which are infested by all stages of the greenhouse red spider mite (Tetranychus urticae) are sprayed with an active compound preparation of the desired concentration.
After 6 days, the efficacy in % is determined. 100% means that all of the spider mites have been killed; 0% means that none of the spider mites have been killed.

Data set [2] is described as follows: log P by HPLC on reversed-phase columns (C 18), EEC directive 79/831 Annex V.A8. The following applies: for logP[a]: method [a]; for logP[b]: method [b]. The format is physicochemical. On the procedure: The log P values were determined according to EEC directive 79/831 Annex V.A8 by HPLC (High Performance Liquid Chromatography) on reversed-phase columns (C 18), using the methods below:
[a] The LC-MS determination in the acidic range is carried out at pH 2.7 with 0.1% aqueous formic acid and acetonitrile (contains 0.1% formic acid) as mobile phases; linear gradient from 10% acetonitrile to 95% acetonitrile.
[b] The LC-MS determination in the neutral range is carried out at pH 7.8 using the mobile phases 0.001 molar aqueous ammonium bicarbonate solution and acetonitrile; linear gradient from 10% acetonitrile to 95% acetonitrile.

Where [3] appears, read: reversed-phase C18 HPLC column, pH 2.7, acidic range, pH 2.7, 0.1% aqueous formic acid / acetonitrile, read-out: log P[a].
Where [4] appears, read: reversed-phase C18 HPLC column, pH 2.7, method [a], read-out: logP[a].
Setting [5] is: reversed-phase C18 HPLC column, pH 7.8, method [b], read-out: logP[b].
[6] abbreviates: reversed-phase C18 HPLC column, pH 7.8, neutral range, pH 7.8, 0.001 molar aqueous ammonium bicarbonate / acetonitrile, read-out: log P[b].

Where two headings read alike, the source gives them in different places.

In the case of `Cc1cc(C)c(-n2cnc3cnn(C)c3c2=O)cc1SCC(F)(F)F` [Compound 130], in data set [1] (application rate 500 g/ha), the “efficacy in % (spider mites killed)” value came to 100%. On the same count and under the same terms, the figure for `Cn1ncc2ncn(-c3cc(SCC(F)(F)F)c(Cl)cc3Cl)c(=O)c21` [Compound 140] is 100%; for `Cc1cc(F)c(-n2cnc3c(ncn3C)c2=O)cc1[S+]([O-])CC(F)(F)F` (stereo not shown) [Compound 179] it is 100%; for `Cn1ncc2ncn(-c3cc([S+]([O-])CC(F)(F)F)c(Cl)cc3Cl)c(=O)c21` (stereo not shown) [Compound 143] it is 100%. Same read-out and setting: in the case of `Cc1ccc(-n2cnc3cnn(C)c3c2=O)cc1SCC(F)(F)F` [Compound 138] it was 100%.

As for `Cc1cc(F)c(-n2cnc3c(C)nn(C)c3c2=O)cc1SCC(F)(F)F` [Compound 128], the “efficacy in % (spider mites killed)” value in data set [1] (application rate 500 g/ha) worked out at 100%. Still for that read-out and setting: in the case of `Cc1cc(F)c(-n2cnc3c(C)n(C)nc3c2=O)cc1[S+]([O-])CC(F)(F)F` (stereo not shown) [Compound 214] it was 90%. Same read-out and setting: the figure for `Cc1cc(F)c(-n2cnc3csc(C)c3c2=O)cc1[S+]([O-])CC(F)(F)F` (stereo not shown) [Compound 218] is 90%. On the same count and under the same terms, the figure for `Cc1nc2cnn(C)c2c(=O)n1-c1cc(SCC(F)(F)F)c(Cl)cc1Cl` [Compound 144] is 90%; for `Cc1cc(F)c(-n2cnc3csc(C)c3c2=O)cc1SCC(F)(F)F` [Compound 217] it is 90%; for `CCn1cc2c(=O)n(-c3cc(SCC(F)(F)F)c(C)cc3F)cnc2n1` [Compound 176] it is 90%.

For `Cc1cc(F)c(-n2cnc3onc(C(F)(F)F)c3c2=O)cc1SCC(F)(F)F` [Compound 197], the “efficacy in % (spider mites killed)” value in data set [1] (application rate 500 g/ha) is 100%.

For `Cc1cc(C)c(-n2c(C)nc3cnn(C)c3c2=O)cc1SCC(F)(F)F` [Compound 131], the “efficacy in % (spider mites killed)” value in data set [1] (application rate 500 g/ha) came out at 90%. With `Cc1cc2ncn(-c3cc([S+]([O-])CC(F)(F)F)c(C)cc3F)c(=O)c2o1` (stereo not shown) [Compound 222], the “efficacy in % (spider mites killed)” value in data set [1] (application rate 500 g/ha) came out at 100%. The same measure, in the same setting: the figure for `Cc1nc2c(=O)n(-c3cc(SCC(F)(F)F)c(C)cc3F)cnc2s1` [Compound 189] is 90%; for `CCn1ncc2c(=O)n(-c3cc([S+]([O-])CC(F)(F)F)c(C)cc3F)c(C)nc21` (stereo not shown) [Compound 127] it is 100%; for `Cc1cc(F)c(-n2cnc3c(C)scc3c2=O)cc1[S+]([O-])CC(F)(F)F` (stereo not shown) [Compound 220] it is 90%. `Cc1cc(F)c(-n2cnc3c(C)nsc3c2=O)cc1SCC(F)(F)F` [Compound 180]: the “efficacy in % (spider mites killed)” value in data set [1] (application rate 500 g/ha) was 90%. On the same count and under the same terms, in the case of `Cc1cc(Cl)c(-n2c(C)nc3cnn(C)c3c2=O)cc1SCC(F)(F)F` [Compound 152] it was 90%; in that of `Cc1cc(F)c(-n2c(C)nc3cnn(C(C)C)c3c2=O)cc1[S+]([O-])CC(F)(F)F` (stereo not shown) [Compound 166], 100%; in that of `Cc1cc(C)c([S+]([O-])CC(F)(F)F)cc1-n1nnc2cnn(C)c2c1=O` (stereo not shown) [Compound 132], 100%. Consider `Cc1cc(Cl)c(-n2cnc3cnn(C)c3c2=O)cc1[S+]([O-])CC(F)(F)F` (stereo not shown) [Compound 158], for which the “efficacy in % (spider mites killed)” value in data set [1] (application rate 500 g/ha) worked out at 100%. `Cc1cc(F)c(-n2c(C)nc3nn(C)cc3c2=O)cc1SCC(F)(F)F` [Compound 174]: the “efficacy in % (spider mites killed)” value in data set [1] (application rate 100 g/ha) stood at 90%. On to `Cc1nc2c(=O)n(-c3cc([S+]([O-])CC(F)(F)F)c(C)cc3F)cnc2s1` (stereo not shown) [Compound 190], for which the “efficacy in % (spider mites killed)” value in data set [1] (application rate 500 g/ha) is listed as 90%. The same measure, in the same setting: the figure for `Cc1cc(F)c(-n2cnc3cn(C)nc3c2=O)cc1[S+]([O-])CC(F)(F)F` (stereo not shown) [Compound 216] is 100%. Same read-out and setting: in the case of `Cc1cc(F)c(-n2cnc3c(C)scc3c2=O)cc1SCC(F)(F)F` [Compound 219] it was 100%. The same measure, in the same setting: the figure for `Cn1ncc2nnn(-c3cc(SCC(F)(F)F)c(Cl)cc3F)c(=O)c21` [Compound 150] is 100%; for `Cc1cc(F)c(-n2cnc3nn(C)cc3c2=O)cc1SCC(F)(F)F` [Compound 173] it is 90%. With `Cn1ncc2ncn(-c3cc([S+]([O-])CC(F)(F)F)c(Cl)cc3F)c(=O)c21` (stereo not shown) [Compound 156], in data set [1] (application rate 500 g/ha), the “efficacy in % (spider mites killed)” value was 100%. The same measure, in the same setting: in the case of `Cc1ccc(-n2c(C)nc3cnn(C)c3c2=O)cc1[S+]([O-])CC(F)(F)F` (stereo not shown) [Compound 145] it was 100%; in that of `CCc1nsc2ncn(-c3cc([S+]([O-])CC(F)(F)F)c(C)cc3F)c(=O)c12` (stereo not shown) [Compound 203], 100%.

`Cc1cc(Cl)c(-n2nnc3cnn(C)c3c2=O)cc1SCC(F)(F)F` [Compound 154]: the “efficacy in % (spider mites killed)” value in data set [1] (application rate 500 g/ha) is on record as 90%. Still for that read-out and setting: in the case of `Cc1cc(Cl)c(-n2cnc3cnn(C)c3c2=O)cc1SCC(F)(F)F` [Compound 151] it was 100%.

On to `Cc1cc(C)c([S+]([O-])CC(F)(F)F)cc1-n1c(C)nc2cnn(C)c2c1=O` (stereo not shown) [Compound 135], for which the “efficacy in % (spider mites killed)” value in data set [1] (application rate 500 g/ha) is 90%. Still for that read-out and setting: the figure for `Cc1cc(F)c(-n2cnc3ncn(C)c3c2=O)cc1[S+]([O-])CC(F)(F)F` (stereo not shown) [Compound 178] is 100%; for `Cc1cc(F)c(-n2cnc3c(C)n(C)nc3c2=O)cc1SCC(F)(F)F` [Compound 213] it is 100%. On the same count and under the same terms, in the case of `Cc1nc2c(=O)n(-c3cc([S+]([O-])CC(F)(F)F)c(C)cc3F)c(C)nc2s1` (stereo not shown) [Compound 185] it was 90%; in that of `Cc1cc(F)c(-n2cnc3onc(C(C)C)c3c2=O)cc1SCC(F)(F)F` [Compound 193], 100%; in that of `Cc1cc(F)c(-n2c(C)nc3cnn(C)c3c2=O)cc1SCC(F)(F)F` [Compound 139], 100%. The same measure, in the same setting: the figure for `Cc1cc(F)c(-n2cnc3nsc(C(C)(C)C)c3c2=O)cc1[S+]([O-])CC(F)(F)F` (stereo not shown) [Compound 192] is 90%.

For the compound `Cc1cc(C)c(-n2nnc3cnn(C)c3c2=O)cc1SCC(F)(F)F` [Compound 133], in data set [1] (application rate 500 g/ha), the “efficacy in % (spider mites killed)” value worked out at 90%.

As to `Cc1ccc(-n2cnc3sccc3c2=O)cc1SCC(F)(F)F` [Compound 83, 3-{4-Methyl-3-[(2,2,2-trifluoroethyl)sulphanyl]phenyl}thieno[2,3-d]pyrimidin-4(3H)-one], the chromatographic logP is 3.04 in data set [2] (setting [3]), 3.09 in data set [2] (setting [4]), 3.01 in data set [2] (setting [5]) and 3.02 in data set [2] (setting [6]). Regarding `Cc1cc(C)c(-n2c(C)nc3c(ncn3C)c2=O)cc1SCC(F)(F)F` [Compound 56], in data set [2], the “logP[a]” value is listed as 2.36 and the “logP[b]” value is 2.35. The corresponding values for `Cc1cc(F)c(-n2cnc3c(cnn3CC(F)(F)F)c2=O)cc1SCC(F)(F)F` [Compound 17] are 3.31 and 3.21. For `Cc1nc2c(cnn2C)c(=O)n1-c1cc(SCC(F)(F)F)c(Cl)cc1Cl` [Compound 5] the same measures were 3.18 and 3.11. For `Cn1ncc2c(=O)n(-c3ccc(C#N)c(SCC(F)(F)F)c3)cnc21` [Compound 24] the same measures were 2.07 and 2.06. For `Cc1cc(F)c(-n2c(C(F)(F)F)nc3c(cnn3C)c2=O)cc1SCC(F)(F)F` [Compound 13, 5-{2-Fluoro-4-methyl-5-[(2,2,2-trifluoroethyl)sulphanyl]phenyl}-1-methyl-6-(trifluoromethyl)-1,5-dihydro-4H-pyrazolo[3,4-d]pyrimidin-4-one], the chromatographic logP in data set [2] (setting [3]) was found to be 3.75; in data set [2] (setting [4]) it was 3.75; in data set [2] (setting [5]) it was 3.94; in data set [2] (setting [6]), 3.94. For the compound `Cc1cc(F)c(I)cc1SCC(F)(F)F` [VIIa-1-I, 1-Fluoro-2-iodo-5-methyl-4-[(2,2,2-trifluoroethyl)sulphanyl]benzene], the chromatographic logP in data set [2] (setting [3]) and in data set [2] (setting [6]) was 4.44 throughout. `O=c1c2sccc2ncn1-c1ccc(C(F)(F)F)c(SCC(F)(F)F)c1` [Compound 104]: in data set [2], the “logP[a]” value was 3.09 and the “logP[b]” value stood at 3.07. For `N#Cc1ccc(-n2cnc3ccsc3c2=O)cc1SCC(F)(F)F` [Compound 102] the same measures were 2.37 and 2.31.

In the case of `Cn1ncc2c(=O)n(-c3cc(SCC(F)(F)F)c(Cl)cc3Cl)cnc21` [Compound 3], in data set [2], the “logP[a]” value is 2.94 and the “logP[b]” value was determined as 2.94. For `O=[N+]([O-])c1cc(SSc2ccc(F)c([N+](=O)[O-])c2)ccc1F` [XIX-5, 1,1′-Disulphanediylbis(4-fluoro-3-nitrobenzene)], the chromatographic logP in data set [2] (acidic range, pH 2.7, 0.1% aqueous formic acid / acetonitrile, read-out: log P[a]) amounted to 3.83; in data set [2] (neutral range, pH 7.8, 0.001 molar aqueous ammonium bicarbonate / acetonitrile, read-out: log P[b]), 3.79.
